Measured values taken from patent publication US20040092515A1, “Diaminoquinazoline esters for use as dihydrofolate reductase inhibitors” (priority 2001, published 2004).

Row | Structure (SMILES) | melting point
1 | COc1cc(C(=O)OCc2ccc3nc(N)nc(N)c3c2)cc(OC)c1OC | 223 to 227 °C
2 | COc1ccc(OC)c(C(=O)OCc2ccc3nc(N)nc(N)c3c2)c1 | 195 to 197 °C
